From paper PMC4097363, “Trace amines inhibit insect odorant receptor function through antagonism of the co-receptor subunit” (F1000Research, 2014)
Where two headings read alike, the source gives them in different places.

How the values were obtained:
Format in all cases: cell-based
[1] = target: Agam\Orco+Agam\Or65 (Anopheles gambiae, UniProt Q7QCC7); test: Antagonism of OLC12 activation of heteromeric OR in Xenopus oocytes; settings: for IC50: read-out: IC 50 for inhibition of Agam\Orco+Agam\Or65 activation
Method: (§1) Follicle cells were removed by treatment with collagenase B (Boehringer Mannheim) for 2 hours at room temperature. Capped cRNA encoding each OR subunit was generated using mMessage mMachine kits (Ambion). For heteromeric ORs, 25 ng of cRNA encoding each OR subunit was injected into Stage V-VI Xenopus oocytes. For expression of Orco homomers, 50 ng of cRNA was injected. Oocytes were incubated at 18°C in Barth's saline (in mM: 88 NaCl, 1 KCl, 2.4 NaHCO 3, 0.3 CaNO 3, 0.41 CaCl 2, 0.82 MgSO 4, 15 HEPES, pH 7.6, and 150µg/ml ceftazidime) for 2–5 days prior to electrophysiological recording.
(§2) Odorant and Orco ligand induced currents were recorded under two-electrode voltage clamp, using an automated parallel electrophysiology system (OpusExpress 6000A, Molecular Devices). Oocytes were perfused with ND96 (in mM: 96 NaCl, 2 KCl, 1 CaCl 2, 1 MgCl 2, 5 HEPES, pH 7.5). Orco ligands were prepared as 50 or 100 mM stock solutions in DMSO and then diluted into ND96 on the day of the experiment. Odorants were prepared as 100 mM stock solutions in DMSO and then diluted into ND96. Unless otherwise noted, applications were for 60 sec at a flow rate of 1.0 ml/min, with extensive washing in ND96 at 4.6 ml/min between applications. Micropipettes were filled with 3 M KCl and had resistances of 0.2–2.0 MΩ. The holding potential was -70 mV. Current responses, filtered (4-pole, Bessel, low pass) at 20 Hz (-3 db) and sampled at 100 Hz, were captured and stored using OpusXpress 1.1 software (Molecular Devices).
To screen for agonist activity, oocytes were exposed to 30 sec applications of candidate compounds with 5 min washes between applications ( Figure 2A). For the concentration-response protocol ( Table 1), applications were for 20 sec at a flow rate of 1.65 ml/min. […]
Initial analysis of electrophysiological data was done using Clampfit 9.1 software (Molecular Devices). […] Statistical significance (p<0.05) was assessed using a two-tailed unpaired t test, an F test, or a one-way analysis of variance followed by the Dunnett's post-test, as appropriate.

[2] = target: T1, Agam\Orco (Anopheles gambiae, UniProt Q7QCC7); test: Antagonism of OLC12 activation of Orco in Xenopus oocytes; settings: 30µM OLC12, 10µM tryptamine
T1 sequence (Q7QCC7 1-478): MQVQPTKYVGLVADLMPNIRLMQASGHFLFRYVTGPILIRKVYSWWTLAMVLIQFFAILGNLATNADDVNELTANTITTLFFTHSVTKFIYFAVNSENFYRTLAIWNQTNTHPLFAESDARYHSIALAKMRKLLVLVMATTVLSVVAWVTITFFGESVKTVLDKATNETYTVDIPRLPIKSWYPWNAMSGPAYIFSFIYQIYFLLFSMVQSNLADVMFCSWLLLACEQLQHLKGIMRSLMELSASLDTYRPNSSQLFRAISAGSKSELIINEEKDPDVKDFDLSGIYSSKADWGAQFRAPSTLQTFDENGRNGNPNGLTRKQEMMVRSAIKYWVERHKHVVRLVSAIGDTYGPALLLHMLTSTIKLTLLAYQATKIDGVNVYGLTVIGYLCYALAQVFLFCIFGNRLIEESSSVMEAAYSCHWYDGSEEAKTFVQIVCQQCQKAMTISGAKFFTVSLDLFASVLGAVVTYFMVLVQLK
Method: as §1
as §2, with “Current responses, filtered (4-pole, Bessel, low pass) at 20 Hz (-3 db) and sampled at 100 Hz, were captured and stored using OpusXpress 1.1 software (Molecular Devices).” left out

[3] = target: T2, Dmel\Orco (Drosophila melanogaster, UniProt Q9VNB5); test: as above; settings: 20µM OLC12, 10µM tryptamine
T2 sequence (Q9VNB5 1-486): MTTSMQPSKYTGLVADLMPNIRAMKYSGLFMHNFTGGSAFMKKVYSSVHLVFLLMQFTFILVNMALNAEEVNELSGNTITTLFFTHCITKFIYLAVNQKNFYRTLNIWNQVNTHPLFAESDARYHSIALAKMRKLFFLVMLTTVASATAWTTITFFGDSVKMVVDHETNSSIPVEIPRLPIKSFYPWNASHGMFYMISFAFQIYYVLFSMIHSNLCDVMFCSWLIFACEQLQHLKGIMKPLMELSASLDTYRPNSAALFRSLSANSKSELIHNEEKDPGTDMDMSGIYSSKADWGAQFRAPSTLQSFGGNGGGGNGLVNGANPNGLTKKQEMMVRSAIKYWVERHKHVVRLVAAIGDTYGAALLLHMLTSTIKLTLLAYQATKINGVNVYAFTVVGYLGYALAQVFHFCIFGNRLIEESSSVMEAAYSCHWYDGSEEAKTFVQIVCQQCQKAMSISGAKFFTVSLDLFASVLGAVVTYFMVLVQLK
Method: as §1
as §2, with “Current responses, filtered (4-pole, Bessel, low pass) at 20 Hz (-3 db) and sampled at 100 Hz, were captured and stored using OpusXpress 1.1 software (Molecular Devices).” left out

Structure (SMILES): NCCc1c[nH]c2ccccc12 [tryptamine]
- mechanism of inhibition of OLC12 activation ([1]; Agam\Orco+Agam\Or65, 20µM vs 100µM OLC12): competitively inhibits OLC12 activation
- IC50 ([1]; activated by 20µM OLC12): 2.9 ± 0.5 µM
- IC50 ([1]; activated by 100µM OLC12): 8.5 ± 1.1 µM
- inhibition of OLC12 activation of Orco [2]: inhibited OLC12 activation of Orco from each of these three insect species
- inhibition of OLC12 activation of Orco [3]: inhibited OLC12 activation of Orco from each of these three insect species
